Measured values taken from publication PMC4788259 (PLoS Neglected Tropical Diseases, 2016).
Where “and” joins values, the source holds several entries; their conditions need not be identical. Identical values can stand only once. Like-named read-outs stand apart in the source and are kept apart here.

Key:
[1] = tested on: E. multilocularis metacestodes; test: Peroral treatment of secondary infected mice; assay type: in vivo, BALB/c mice; details: p.o. gavage 5 days per week, 4 weeks, MMV665807 100 mg/kg, ABZ 200 mg/kg
Procedure: (§1) Animals were kept at a temperature-controlled 12/12 hours light cycle with food and water ad libitum and according to the Swiss Animal protection law. For the in vivo treatment of MMV665807, BALB/c mice (from Charles River, Sulzfeld, Germany), at the age of 8 weeks with an average body weight of 20 g, were i.p. infected with 200 μL metacestodes vesicle suspension. This material was prepared from in vitro-cultured metacestodes (strain H95), which were disintegrated by pressing the parasites through a 1 mL pipette tip. Parasite tissue was centrifuged at 500 x g for 5 min at room temperature before being mixed 1:1 in PBS.
Peroral (p.o.) drug treatments by gavage were initiated 6 weeks post-infection and performed as follows: group 1 received no treatment at all; group 2 received 100 μL corn oil containing 7.8 μL DMSO; group 3 mice were treated with 100 μL corn oil containing albendazole (ABZ) in 7.8 μL DMSO, in order to obtain a dosage of 200 mg/kg body weight (positive control); group 4 was treated with 100 μL corn oil containing MMV665807 in 7.8 μL DMSO, resulting in 100 mg/kg body weight. All mice were treated for a total time period of 4 weeks, with consecutive treatment during 5 days per week, and interruption of treatment for 2 days each week. At the end of the treatment, all mice were sedated by isoflurane and subsequently euthanized by CO2. All parasite tissue was resected, placed into a petri dish, and the parasite mass was weighed. Statistical analysis of the in vivo experiments was performed in R version 3.0.1. The data distribution was checked by Shapiro-Wilk test and eventual differences between treatment groups identified by the non-parametric Kruskal-Wallis test. P values were calculated by the non-parametric Wilcoxon […] test with Bonferroni-adjustment. Boxplot visualizations of the data were prepared in Microsoft Excel 2010.

[2] = tested on: E. multilocularis metacestodes; test: Intraperitoneal treatment of secondary infected mice; assay type: in vivo, BALB/c mice; details: 4 weeks, MMV665807 100 mg/kg i.p. three times per week, ABZ 200 mg/kg p.o. 5 days per week
Procedure: as §1
I.p. drug treatments were initiated 2 weeks post-infection. 32 infected mice were randomly separated into 4 groups with 2 times 4 animals per cage. All animals were exposed to 4 weeks of treatment, with five consecutive days of drug application followed by a 2 day recovery period without treatment. Treatment groups were defined as follows: group 1 (control) received 50 μL of corn oil by gavage on 5 days per week, and an i.p. injection of DMSO in corn oil (4 μL DMSO and 46 μL corn oil) on three days per week; group 2 also received corn oil by gavage 5 days per week, and an i.p. injection of MMV665807 (100 mg/kg in 4 μL DMSO plus 46 μL corn oil) three times per week; group 3 was treated with the standard albendazole treatment (albendazole in corn oil, 200 mg/kg/ day for 5 days each week) and also received an i.p. injection of 4 μl DMSO suspended in 46 μl corn oil three times per week; group 4 received a combined treatment consisting of albendazole in corn oil by gavage (200 mg/kg/day 5 days per week) and an i.p. injection of MMV665807 (100 mg/kg three times per week). After 4 weeks of treatment, mice were euthanized and the parasite mass resected and measured as described above. Statistical analyses were performed as described above.

[3] = tested on: newly transformed schistosomula; set-up: method as in PMID 24416463; details: in vitro; read-out: IC50 against newly transformed schistosomula; cited from earlier work
adult worms = tested on: adult worms; set-up: method as in PMID 24416463; details: in vitro; read-out: IC50 against adult worms; cited from earlier work
[4] = tested on: E. multilocularis metacestodes; test: PGI assay: phosphoglucose isomerase release from damaged metacestodes; assay type: cell-based, Echinococcus multilocularis; details: 5 days; for activity in PGI assay at 1 μM: triplicates; for EC50: PGI assay, 10-0.01 μM; for PGI (% of DB1127 at 10 uM): single wells, relative to DB1127 (10 μM)
Method in brief: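 E. multilocularis metacestode vesicles (strain H95, grown in BALB/c mice, 2–4 mm diameter) were exposed in vitro to compounds for 5 days. Damage was read as phosphoglucose isomerase released into the medium. Initial screening used 10 μM in single wells, with 0.1% DMSO as negative control. EC50 values were derived from this read-out.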

[5] = tested on: Reuber rat hepatoma (RH) cells; test: alamarBlue viability assay on RH cells; assay type: cell-based; details: 120 h, 5 days
Procedure: (§2) For testing growth inhibitory effects on confluent host cells, cells were seeded in 96-well plates (10,000 cells per well for HFF and 50,000 cells per well for RH cells), in DMEM containing FBS (10%) and antibiotics (100 U penicillin, 100 μg streptomycin and 0.25 μg amphotericin B per mL medium) and were cultured overnight at 37°C, 5% CO2. Thereafter the drugs (10 μM) were added and diluted in a serial 1:2 dilutions down to 20 nM. The concentration range was further adjusted in subsequent setups. For testing growth inhibitory effects on proliferating cells, cells were seeded at 1,000 (HFF) and 5,000 (RH) cells per well, and were allowed to attach for 5 hours at 37°C before addition of the drugs. After 5 days of culture, cell viability was assessed by alamarBlue assay.

[6] = tested on: human foreskin fibroblasts (HFF); test: alamarBlue viability assay on HFF; assay type: cell-based; details: Fibroblast, 120 h, 5 days
Procedure: as §2

[7] = tested on: E. multilocularis germinal layer cells; test: CellTiter-Glo viability assay on germinal layer cell cultures; assay type: cell-based; details: Echinococcus multilocularis, 120 h, 5 days, read-out: E.m. GL cells (IC50)
Procedure: To assess the effects of MMV665807 on the viability of parasite cells, germinal layer cells were extracted according to Spiliotis et al. After overnight aggregate formation, 15 units of cells were distributed to a black 384 well plate (Nunc, Thermo Scientific, Reinach, Switzerland) in 12.5 μL medium. A concentration series (final concentrations of 3, 1, 0.3, 0.1, 0.03, 0.01 μM) of MMV665807, MMV665794 and mefloquine were prepared in medium and added 1:2 to the cells. For mefloquine, the concentration range was adjusted in a subsequent setup up to 100 μM. As negative control, DMSO was added accordingly. After 5 days of culture at 37°C under humid nitrogen atmosphere, 25 μL CellTiter-Glo (Promega, Dübendorf, Switzerland) including 1% TritonX-100 was added. Plates were incubated for 15 minutes on a shaker at room temperature and complete disruption of all cell aggregates was checked for before measurement of luminescence on a 2300 Enspire multilabel reader (Perkin-Elmer). Mean values and standard deviations were calculated and DMSO values set to 100% viability. The IC50 value was calculated in Microsoft Excel 2010 after logit-log transformation and averages as well as standard deviations of four independent setups were calculated.

S. mansoni = tested on: S. mansoni; set-up: method as in PMID 24416463; details: cited from earlier work

Structure (SMILES) | PGI (% of DB1127 at 10 uM) [4] | also measured
CCCSc1ccc2nc(NC(=O)OC)[nH]c2c1 [ABZ, albendazole, reference compound] | – | parasite weight compared to control ([1]; start 6 weeks post-infection): significant reduction; adverse effects during treatment [1]: No adverse effects; parasite weight compared to placebo group ([2]; start 2 weeks post-infection): significantly lower; adverse effects during treatment [2]: No adverse effects
Brc1ccc(Nc2nc3ccccc3nc2Nc2ccc(Br)cc2)cc1 [MMV007224] | – | IC50 [3]: > 33 µM; IC50 (adult worms): 0.8 µM; activity in PGI assay at 1 μM [4]: lost its activity
FC(F)(F)c1cccc(Nc2nc3ccccc3nc2Nc2cccc(C(F)(F)F)c2)c1 [MMV665794] | – | IC50 ([5]; confluent cells, read-out: Confluent RH (IC50)): 0.8 ± 0.15 µM; IC50 ([5]; proliferating cells, read-out: Preconfluent RH (IC50)): 1.1 ± 0.18 µM; IC50 [3]: > 33.3 µM; IC50 (adult worms): 1.1 µM; IC50 ([6]; confluent cells, read-out: Confluent HFF (IC50)): 21.5 ± 0.17 µM; IC50 ([6]; proliferating cells, read-out: Preconfluent HFF (IC50)): 5.9 ± 0.21 µM; IC50 [7]: 5.8 ± 0.16 µM; EC50 ([4]; Echinococcus multilocularis, 120 h): < 5 µM; EC50 [4]: 2.8 ± 0.53 µM
O=C(Nc1ccc(Cl)c(Cl)c1)Nc1ccc(Cl)c(Cl)c1 [MMV665852] | 14.8% and 14.75% | worm burden reduction (S. mansoni; 80 mg/kg): 46%; worm burden reduction (S. mansoni; 400 mg/kg): 52.5%; worm burden reduction (S. mansoni; 4x100 mg/kg): 31.2%; IC50 [3]: 4.7 µM; IC50 (adult worms): 0.8 µM; activity in PGI assay at 1 μM [4]: no activity at all
CCOC(=O)C1(Cc2ccccc2)CCN(Cc2cccc(OC)c2O)CC1 [MMV666109] | -8.56% | –
C=C(C)CCC(C)N1CCC(N2CCC(C(=O)NCCc3ccccc3)CC2)CC1 (centres unmarked) [MMV666110] | -25.44% | –
Oc1ccccc1CN1CCC2(CCCN(Cc3ccccc3F)C2)C1 (centres unmarked) [MMV666116] | -7.59% | –
CC(C)(C)c1ccc(C(=O)Nc2c3c(nn2-c2cccc(Cl)c2)CSC3)cc1 [MMV666123] | -7.56% | –
CC(=O)c1ccc(NC(=O)CSc2nc(-c3ccccc3Cl)ns2)cc1 [MMV666124] | -5.85% | –
CC1=C(CC(=O)c2cccc([N+](=O)[O-])c2)C(=O)c2ccccc2C1=O [MMV666125] | -2.81% | –
CSC1=NC(=Nc2c(C)cccc2C)C2(CCC(C(C)(C)C)CC2)N1c1ccc(Cl)cc1 (centres unmarked) [MMV666596] | -70.72% | –
CCCCCCc1cc2cc(-c3nc4ccccc4[nH]3)c(=Nc3ccccc3C)oc2cc1O [MMV666597] | -1.88% | –
O=c1nc(C=Cc2ccc(Br)cc2)oc2ccccc12 [MMV666599] | 22.37% | –
CCOC(=O)c1c(C)n(-c2ccc(Cl)cc2)c2ccc(OC(=O)C=Cc3ccccc3)cc12 [MMV666600] | -39.04% | –
CCOC(=O)C1=C(c2ccccc2)N=c2sc(=Cc3cc(C)n(-c4ccc(F)cc4)c3C)c(=O)n2C1c1cccc(OC)c1OC (centres unmarked) [MMV666601] | -52.06% | –
CCOC(=O)C1=C(C)N=c2sc(=Cc3ccccc3O)c(=O)n2C1c1ccc(OC)c2ccccc12 (centres unmarked) [MMV666604] | -9.67% | –

Structure (SMILES) | PGI (% of DB1127 at 10 uM) [4] | also measured
O=[N+]([O-])c1ccc(C=NNc2nc3ccccc3[nH]2)cc1 [MMV666607] | -48.05% | –
COc1ccccc1C(=O)ON=C(N)Cc1cccc2ccccc12 [MMV666686] | 1.82% | –
COc1cc(C(=O)ON=C(N)Cc2cccc3ccccc23)cc(OC)c1OC [MMV666687] | 1.57% | –
Cc1cc(C=C2SC(=Nc3ccccc3)N(C3CCCC3)C2=O)c(C)n1-c1ccc(Cl)cc1 [MMV666688] | -35.93% | –
COc1ccc(Nc2nc(N/N=C/c3ccc(O)cc3)nc(Nc3ccc([N+](=O)[O-])cc3)n2)cc1 [MMV666689] | 5.99% | –
COc1ccc(C=C2SC(=N)N(c3ccccc3OC)C2=O)cc1 [MMV666691] | -41.85% | –
CCCCCCc1cc2cc(-c3csc(C=Cc4ccccc4)n3)c(=O)oc2cc1O [MMV666692] | -4.22% | –
COc1cccc(C=Cc2nc(=O)c3ccccc3o2)c1OC [MMV666693] | -16.84% | –
CCOc1ccc(N2C(N)=NC(N)=NC2(C)C)cc1.Cl [MMV667486] | -3.47% | –
CN(C)c1ccc(N2C(N)=NC(N)=NC2(C)C)cc1 [MMV667487] | -14.53% | –
COc1ccc(CCn2c(=N)c(C(=O)NCc3cccnc3)cc3c(=O)n4cccc(C)c4nc32)cc1 [MMV667488] | -13.42% | –
COC(=O)c1ccc(Cl)c2c1C1C=CCC1C(c1cccc3ccccc13)N2 (centres unmarked) [MMV667489] | 2.16% | –
COc1ccc(C2c3ccc4ccccc4c3Oc3ncn(CCCn4ccnc4)c(=N)c32)cc1OC (centres unmarked) [MMV667490] | -1.19% | –
COc1ccc(C2c3ccc4ccccc4c3Oc3ncn(CCCN(C)C)c(=N)c32)cc1 (centres unmarked) [MMV667491] | 39.81% | –
CN(N=O)C1=C(NC2CCCCC2)C(=O)c2ccccc2C1=O [MMV667492] | -5.36% | –
